Results from US8648076B2, “Cysteine protease inhibitors and their therapeutic applications” (Hybrigenics SA, priority 2005, dated 2014).
Like-named read-outs stand apart in the source and are kept apart here.

Tests used:
USP7 = molecular target: T1, USP7 (Homo sapiens, UniProt Q93009); assay: USP7 activity assay; assay type: biochemical
T1 construct: His tag (from pFastBac-HT vector) (N); made in house; host or cells: insect cells (Sf9 or High Five), baculovirus

Uch-L3 = molecular target: T2, Uch-L3 (Homo sapiens, UniProt P15374); assay: UCH-L3 activity assay; assay type: biochemical; conditions: 400 nM Ub-AMC, 13 pM enzyme, 30 min pre-incubation at 25° C., 60 min at 37° C.; sigmoidal fit; AF: Autofluorescent; read-out: Uch-L3 (inhibition of cysteine protease activity)
T2 sequence (P15374 1-230): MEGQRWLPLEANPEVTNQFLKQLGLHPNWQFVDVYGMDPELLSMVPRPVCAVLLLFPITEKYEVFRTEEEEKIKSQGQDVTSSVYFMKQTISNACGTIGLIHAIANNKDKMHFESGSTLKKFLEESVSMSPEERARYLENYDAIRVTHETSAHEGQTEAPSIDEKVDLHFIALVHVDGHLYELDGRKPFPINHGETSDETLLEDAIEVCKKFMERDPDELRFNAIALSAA
Description: (§1) Bovine Serum Albumin 0.05 mg·ml^−1 pH7.6). Compounds stocks (100 mM) were stored at −20° C. in DMSO. […] Reactions were performed as duplicates in Black LJL 96 well plates (HE microplates; Molecular Devices; 20 μl final reaction volume). The substrate concentration for Uch-L3 was 400 nM Ub-AMC (Boston Biochem). The concentration of the enzyme (Uch-L3) in specificity assays was 13 pM. The concentrations were determined in order to perform specificity assays under initial velocities at fixed substrate concentration. Compounds were pre-incubated with enzymes for 30 minutes at 25° C. Reactions were initiated by addition of substrate to the plates containing the enzymes (+/−compounds) diluted in assay buffer. Reactions were incubated for 60 minutes at 37° C. Reactions were stopped by adding acetic acid (100 mM final). Readings were performed on a Pherastar Fluorescent Reader (BMG). δ Emission 380 nm; δ Excitation=460 nm. Data (mean values+/− standard deviation) were analyzed as % of control (no compound) and plotted as percentage versus the Log of the compound concentration using GraphPad (Prism). Data were fitted to a sigmoidal model (variable slope).

Caspase 3 = molecular target: T3, Caspase 3 (Homo sapiens, UniProt P42574); assay: Caspase 3 activity assay; assay type: biochemical
T3 sequence (P42574 29-175 limits assumed): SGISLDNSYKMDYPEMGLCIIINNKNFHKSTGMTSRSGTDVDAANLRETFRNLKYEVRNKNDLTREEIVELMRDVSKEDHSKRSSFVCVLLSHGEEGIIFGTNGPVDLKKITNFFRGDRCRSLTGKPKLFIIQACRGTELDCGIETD
T3 sequence (P42574 176-277 limits assumed): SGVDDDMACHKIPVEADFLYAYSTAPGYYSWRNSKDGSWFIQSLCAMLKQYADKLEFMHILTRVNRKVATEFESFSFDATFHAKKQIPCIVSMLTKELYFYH
Description: as §1, with “Compounds” for “Bovine Serum Albumin 0.05 mg·ml^−1 pH7.6). Compounds”, “caspase 3 specificity assay” for “Uch-L3”, “500” for “400”, “(Ac-DEVD-AMC; Promega). […]” for “Ub-AMC (Boston Biochem). The concentration of the enzyme (Uch-L3) in specificity assays was 13 pM.”

[1] = test system: HCT116 colon cancer cells; assay: HCT116 cell viability and proliferation assay (MTS); assay type: cell-based; conditions: Homo sapiens, read-out: HCT116 D3 GI50
[2] = test system: PC-3 prostate cancer cells; assay: PC3 cell viability and proliferation assay (MTS); assay type: cell-based; conditions: Homo sapiens, PC-3, 72 h, read-out: PC3 D3 GI50
[3] = 400 nM Ub-AMC, 152 pM enzyme, 30 min pre-incubation at 25° C., 60 min at 37° C., sigmoidal fit, read-out: USP 7 (inhibition of cysteine protease activity)
[4] = 500 nM Ac-DEVD-AMC, 3.2 nM enzyme, 30 min pre-incubation at 25° C., 60 min at 37° C., sigmoidal fit, AF: Autofluorescent, read-out: Casp3 (inhibition of cysteine protease activity)
[5] = HCT-116, HCT116 cells, 72 hours incubation, MTS, mean of 3 independent experiments
[6] = PC3 cells, 72 hours incubation, MTS, mean of 3 independent experiments

T1 sequence (Q93009 whole entry): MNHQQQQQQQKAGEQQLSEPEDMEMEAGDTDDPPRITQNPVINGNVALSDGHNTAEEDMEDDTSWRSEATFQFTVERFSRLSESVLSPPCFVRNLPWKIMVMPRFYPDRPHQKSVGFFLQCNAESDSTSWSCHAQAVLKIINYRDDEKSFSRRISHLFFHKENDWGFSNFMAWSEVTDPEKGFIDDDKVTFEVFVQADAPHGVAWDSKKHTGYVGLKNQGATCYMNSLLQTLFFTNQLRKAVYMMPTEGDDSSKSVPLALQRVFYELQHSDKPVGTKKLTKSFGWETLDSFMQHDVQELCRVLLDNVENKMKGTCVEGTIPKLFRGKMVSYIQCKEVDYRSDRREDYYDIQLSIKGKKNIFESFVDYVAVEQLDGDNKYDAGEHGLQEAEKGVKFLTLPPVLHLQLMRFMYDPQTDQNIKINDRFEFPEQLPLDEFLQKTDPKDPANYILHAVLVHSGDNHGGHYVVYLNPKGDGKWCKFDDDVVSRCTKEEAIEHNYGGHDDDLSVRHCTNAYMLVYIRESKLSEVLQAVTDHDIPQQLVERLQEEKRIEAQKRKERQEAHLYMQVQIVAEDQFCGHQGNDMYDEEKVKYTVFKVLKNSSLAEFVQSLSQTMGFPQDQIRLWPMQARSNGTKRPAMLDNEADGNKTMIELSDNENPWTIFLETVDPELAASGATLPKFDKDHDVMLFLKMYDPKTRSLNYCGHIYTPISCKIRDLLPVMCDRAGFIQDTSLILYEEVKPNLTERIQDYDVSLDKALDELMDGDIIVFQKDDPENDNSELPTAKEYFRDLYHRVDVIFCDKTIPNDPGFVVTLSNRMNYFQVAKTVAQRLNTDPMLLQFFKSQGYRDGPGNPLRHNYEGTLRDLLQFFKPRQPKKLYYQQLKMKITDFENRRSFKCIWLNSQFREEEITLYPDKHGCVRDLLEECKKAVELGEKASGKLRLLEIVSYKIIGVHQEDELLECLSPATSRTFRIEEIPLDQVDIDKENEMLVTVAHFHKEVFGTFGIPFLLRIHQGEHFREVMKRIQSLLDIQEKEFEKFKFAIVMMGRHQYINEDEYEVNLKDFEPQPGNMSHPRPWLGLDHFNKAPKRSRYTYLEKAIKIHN

| SMILES | IC50 (USP7; [3]) [µM] | IC50 (Uch-L3) [µM] | IC50 (Caspase 3; [4]) [µM] | GI50 [1, 5] [µM] | GI50 [2, 6] [µM] | IC50 (USP7) [µM] | GI50 ([1]; HCT-116, 72 h) [µM] | GI50 [2] [µM] | IC50 (Caspase 3) [µM] |
| --- | --- | --- | --- | --- | --- | --- | --- | --- | --- |
| N#Cc1nc2c(nc1C#N)-c1ccccc1C2=NOCc1ccccc1 (mixture of isomers) [Example 13C, 9-Benzyloxyimino-9H-indeno[1,2-b]pyrazine-2,3-dicarbonitrile] | > 100 | > 100 | > 100 | 0.75 | 0.7 | – | – | – | – |
| C=CCON=C1c2ccccc2-c2nc(C#N)c(C#N)nc21 (mixture of isomers) [Example 13b, 9-(Allyloxyimino)-9H-indeno[1,2-b]pyrazine-2,3-dicarbonitrile] | – | 10 | > 100 | – | – | > 100 | 0.58 | 0.54 | – |
| CCON=C1c2ccccc2-c2nc(C#N)c(C#N)nc21 (mixture of isomers) [Example 13d, 9-Ethoxyimino-9H-indeno[1,2-b]pyrazine-2,3-dicarbonitrile] | > 100 | 1.3 | > 100 | 1.18 | 1.54 | – | – | – | – |
| N#Cc1nc2c(nc1C#N)-c1ccccc1C2=Nc1ccccc1 (mixture of isomers) [Example 14, 9-[phenylimino]-9H-indeno[1,2-b]pyrazine-2,3-dicarbonitrile] | 4.1 | 0.39 | 1.3 | 0.43 | 0.51 | – | – | – | – |
| CC(=O)O/N=C1\c2ccccc2-c2nc(C(N)=O)c(C#N)nc21 (single isomer, unassigned) [Example 35, 2-cyano-9-acetoxyimino-9H-indeno[1,2-b]pyrazine-3-carboxylic acid amide] | – | 0.048 | 0.12 | – | – | 0.506 | 1.35 | 1.28 | – |
| N#Cc1nc2c(nc1C#N)-c1ccccc1C2=O [Example 1, 9-oxo-9H-indeno[1,2-b]pyrazine-2,3-dicarbonitrile] | 3.5 | 0.76 | 0.69 | 0.15 | 0.61 | – | – | – | – |
| COc1nc2c(nc1C#N)C(=O)c1ccccc1-2 [Example 3, 3-methoxy-9-oxo-9H-indeno[1,2-b]pyrazine-2-carbonitrile] | > 100 | 13 | > 100 | > 10 | > 10 | – | – | – | – |
| CN(C)c1nc2c(nc1C#N)C(=O)c1ccccc1-2 [Example 4, 3-dimethylamino-9-oxo-9H-indeno[1,2-b]pyrazine-2-carbonitrile] | > 100 | > 100 | > 100 | > 10 | > 10 | – | – | – | – |
| COCCOc1nc2c(nc1C#N)C(=O)c1ccccc1-2 [Example 5, 3-(2-methoxy-ethoxy)-9-oxo-9H-indeno[1,2-b]pyrazine-2-carbonitrile] | > 100 | 24 | > 100 | > 10 | > 10 | – | – | – | – |
| N#Cc1nc2c(nc1O)-c1ccccc1C2=O [Example 6, 3-hydroxy-9-oxo-9H-indeno[1,2-b]pyrazine-2-carbonitrile] | 21.8 | 1.1 | 9.3 | > 10 | > 10 | – | – | – | – |
| N#Cc1nc2c(nc1N)-c1ccccc1C2=O [Example 7, 3-amino-9-oxo-9H-indeno[1,2-b]pyrazine-2-carbonitrile] | > 100 | 52 | > 100 | > 10 | > 10 | – | – | – | – |
| N#Cc1nc2c(nc1N1CCC(F)(F)CC1)-c1ccccc1C2=O [Example 8, 3-(4,4-difluoro-piperidin-1-yl)-9-oxo-9H-indeno[1,2-b]-pyrazine-2-carbonitrile] | > 100 | > 100 | > 100 | > 10 | > 10 | – | – | – | – |
| N#Cc1nc2c(nc1Cl)-c1ccccc1C2=O [Example 9, 3-chloro-9-oxo-9H-indeno[1,2-b]pyrazine-2-carbonitrile] | > 100 | 8.8 | > 100 | > 10 | > 10 | – | – | – | – |
| N#Cc1nc2c(nc1C#N)C1(OCCO1)c1ccccc1-2 [Example 10] | – | 20 | > 100 | 3.4 | 4.4 | – | – | – | – |
| N#Cc1nc2c(nc1C(N)=O)-c1ccccc1/C2=N\O [Example 11, 2-cyano-9-[hydroxyimino]-9H-indeno[1,2-b]pyrazine-3-carboxylic acid amide] | 13 | 0.6 | 2.3 | 1.6 | 1.24 | – | – | – | – |
| N#Cc1nc2c(nc1C#N)-c1ccccc1C2=NO [Example 12, 9-[hydroxyimino]-9H-indeno[1,2-b]pyrazine-2,3-dicarbonitrile] | > 100 | 1.3 | 5.6 | 6.5 | 4.4 | – | – | – | – |
| CCO/C(O)=C(\C#N)c1nc2c(nc1C#N)C(=O)c1ccccc1-2 [Example 22, 3-(1-cyano-2-ethoxy-2-hydroxy-vinyl)-9-oxo-9H-indeno[1,2-b]pyrazine-2-carbonitrile] | – | 22 | > 100 | > 10 | > 10 | – | – | – | – |
| N#Cc1nc2c(nc1CC(N)=O)-c1ccccc1C2=O [Example 26, 2-(2-cyano-9-oxo-9H-indeno[1,2-b]pyrazin-3-yl)-acetamide] | – | 1.6 | – | – | – | > 100 | > 10 | > 10 | – |
| N#Cc1nc2c(nc1C(N)=O)-c1ccccc1C2=O [Example 36, 2-cyano-9-oxo-9H-indeno[1,2-b]pyrazine-3-carboxylic acid amide] | – | 0.178 | 0.402 | – | – | 1.27 | 4.25 | – | – |
| CCOC(=O)CO/N=C1\c2ccccc2-c2nc(C(N)=O)c(C#N)nc21 [Example 37, (3-carbamoyl-2-cyano-indeno[1,2-b]pyrazin-9-ylideneaminooxy)-acetic acid ethyl ester] | 2.33 | 0.393 | 1.16 | 0.652 | – | – | – | – | – |
| N#Cc1nc2c(nc1C(N)=O)-c1ccccc1/C2=N\OCC(=O)O [Example 38, (3-carbamoyl-2-cyano-indeno[1,2-b]pyrazin-9-ylideneaminooxy)-acetic acid] | – | 0.758 | – | – | – | 4.03 | > 10 | – | 3.94 |
| CCOC(=O)CNC(=O)CO/N=C1\c2ccccc2-c2nc(C(N)=O)c(C#N)nc21 [Example 40, [2-(3-carbamoyl-2-cyano-indeno[1,2-b]pyrazin-9-ylideneaminooxy)-acetylamino]-acetic acid ethyl ester] | 2.8 | 0.245 | 0.857 | 4.6 | – | – | – | – | – |
| N#Cc1nc2c(nc1C(N)=O)-c1ccccc1/C2=N\OCC(=O)NCC(=O)O [Example 41, [2-(3-carbamoyl-2-cyano-indeno[1,2-b]pyrazin-9-ylideneaminooxy)-acetylamino]-acetic acid] | – | 0.328 | 1.98 | – | – | 4.28 | > 10 | – | – |
